Molecules are shown by their SMILES. Where two headings read alike, the source gives them in different places.

We go through eleven molecules from patent US20230131899A1, “INHIBITORS OF MICROBIALLY INDUCED AMYLOID” (Axial Therapeutics, Inc., priority 2020, published 2023).

One experiment concerns the target T1, E. coli CsgA (Escherichia coli, UniProt P28307).
T1 construct: made in house; host or cells: E. coli NEB 3016 slyD::kan, pET11d
Briefly: In vitro ThioflavinT assay of CsgA aggregation (CsgA ThT Assay). The class given is biochemical. To be noted: for remaining activity at 25 µM: compound 25 μM; for remaining activity at 100 µM: compound 100 μM. In a few lines:
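Purified C-terminal His-tagged CsgA, monomerised by desalting and 30-kDa filtration, at 2-20 μM with 20-40 μM ThT in 50 mM potassium phosphate pH 7.3, 1% DMSO, compounds 3.125-200 uM; room temperature, fluorescence (ex 438/em 495 nm) read every 15 min. Background-subtracted signal expressed as percent inhibition versus vehicle at 6-6.5 or 8-9 h, or as percent control AUC.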

The test system of experiment [1] is CsgA gene expression (csgBAC promoter-GFP reporter) in E. coli UTI89. Briefly: In vitro live cell fluorescent reporter assay of CsgA transcription (Reporter Assay). The class given is cell-based. To be noted: Escherichia coli. In a few lines:
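Chromosomal single-copy csgBAC promoter–GFP reporter in E. coli UTI89, started at OD600 0.003 in YESCA broth with compound (0.14–100 μM, 1% DMSO), 20 h at 27 °C. GFP (ex 485/em 525 nm) background-subtracted and normalized to vehicle; IC50 and X[50] from curve fits. OD600 tracked growth effects.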
On the technique in general: Reporter assays use an easily measured gene product as a stand-in for the process of interest.

Where [2] appears, read: read-out: CsgA ThT Assay (10 μM CsgA) % Control AUC at 1005 minutes, 25 μM (activity range), CsgA 10 μM, black plates, 1005 minutes, class symbol.
Where [3] appears, read: read-out: CsgA ThT Assay (10 μM CsgA) % Control AUC at 1005 minutes, 25 μM, mean AUC as % of DMSO control, CsgA 10 μM, black plates, 1005 minutes.
[4] abbreviates: read-out: CsgA ThT Assay (10 μM CsgA) % Control AUC at 1005 minutes, 100 μM (activity range), CsgA 10 μM, black plates, 1005 minutes, class symbol.
[5] abbreviates: read-out: CsgA ThT Assay (10 μM CsgA) % Control AUC at 1005 minutes, 100 μM, mean AUC as % of DMSO control, CsgA 10 μM, black plates, 1005 minutes.
[6] abbreviates: read-out: Reporter Assay Abs IC50 (activity range), median Abs IC50 in the CsgA reporter assay, class symbol.
[7] abbreviates: read-out: Reporter Assay Abs IC50 (μM), median Abs IC50 in the CsgA reporter assay, N/A = maximum expression reduction is <50% of control.
Setting [8] is: read-out: CsgA ThT Assay (2 μM CsgA) % Control Bmax 25 μM, activity range, class symbol, CsgA 2 μM, white plates.
The mark [9] stands for this setting: read-out: CsgA ThT Assay (2 μM CsgA) % Control Bmax 25 μM, mean Bmax as percentage of DMSO control, CsgA 2 μM, white plates.
Where [10] appears, read: read-out: CsgA ThT Assay (2 μM CsgA) % Control Bmax 100 μM, activity range, class symbol, CsgA 2 μM, white plates.
The mark [11] stands for this setting: read-out: CsgA ThT Assay (2 μM CsgA) % Control Bmax 100 μM, mean Bmax as percentage of DMSO control, CsgA 2 μM, white plates.
Setting [12] is: read-out: Reporter Assay Abs IC50, activity range, class symbol.

T1 sequence (P28307 23-151): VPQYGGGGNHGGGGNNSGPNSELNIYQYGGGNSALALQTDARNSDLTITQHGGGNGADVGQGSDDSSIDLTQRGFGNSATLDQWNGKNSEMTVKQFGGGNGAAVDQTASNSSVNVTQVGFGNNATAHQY

With `CCc1c(Cc2cccc3ccccc23)c(-c2cccc(C(F)(F)F)c2)c2n(c1=O)C(C(=O)O)CN(CCCCCO)S2(=O)=O` (stereo not drawn) [Compound 114, 7-ethyl-2-(5-hydroxypentyl)-8-(naphthalen-1-ylmethyl)-6-oxo-9-(3-(trifluoromethyl)phenyl)-3,4-dihydro-2H,6H-pyrido[1,2-e][1,2,5]thiadiazine-4-carboxylic acid 1,1-dioxide], the results for the remaining activity at 25 µM on E. coli CsgA (setting [2]) and at E. coli CsgA (setting [3]) were 31 to 60% and 37%, respectively. Besides, the values for the remaining activity at 100 µM at E. coli CsgA (setting [4]) and on E. coli CsgA (setting [5]) were 11 to 31% and 21%, respectively. In addition, the IC50 is 4.6 to 10 µM in experiment [1] (setting [6]) and 7 µM in experiment [1] (setting [7]).
Take `CCCN1CC(C(=O)O)n2c(c(-c3cccc(C(F)(F)F)c3)c(Cc3cccc4ccccc34)c(NCC3CCCC3)c2=O)S1(=O)=O` (stereo not drawn) [Compound 128, 7-((cyclopentylmethyl)amino)-8-(naphthalen-1-ylmethyl)-6-oxo-2-propyl-9-(3-(trifluoromethyl)phenyl)-3,4-dihydro-2H,6H-pyrido[1,2-e][1,2,5]thiadiazine-4-carboxylic acid 1,1-dioxide]: the remaining activity at 25 µM at E. coli CsgA (setting [2]) is 11 to 31%; at E. coli CsgA (setting [3]) it was 29%. The results for the remaining activity at 100 µM at E. coli CsgA (setting [4]) and at E. coli CsgA (setting [5]) were 11 to 31% and 28%, respectively. Besides, the figures for the IC50 in experiment [1] (setting [6]) and in experiment [1] (setting [7]) were 1.3 to 4.5 µM and 2.2 µM, respectively.
Consider `CN1CC(C(=O)O)n2c(c(-c3cccc(C(F)(F)F)c3)c(Cc3cccc4ccccc34)c(C(=O)N3CCCC3)c2=O)S1(=O)=O` (stereo not drawn) [Compound 186, 2-methyl-8-(naphthalen-1-ylmethyl)-6-oxo-7-(pyrrolidine-1-carbonyl)-9-(3-(trifluoromethyl)phenyl)-3,4-dihydro-2H,6H-pyrido[1,2-e] [1,2,5] thiadiazine-4-carboxylic acid 1,1-dioxide], for which the remaining activity at 25 µM on E. coli CsgA (setting [8]) is above 60%; on E. coli CsgA (setting [9]), 117%. Further, the remaining activity at 100 µM on E. coli CsgA (setting [10]) was above 60%; at E. coli CsgA (setting [11]), 72%. Also, the IC50 is 4.7 µM in experiment [1] (setting [7]) and 4.6 to 10 µM in experiment [1] (setting [12]).
`O=C(O)C1CNc2c(-c3cccc(C(F)(F)F)c3)c(Cc3cccc4ccccc34)c(Br)c(=O)n21` (stereo not drawn) [Compound 133, 6-bromo-7-(naphthalen-1-ylmethyl)-5-oxo-8-(3-(trifluoromethyl)phenyl)-1,2,3,5-tetrahydroimidazo[1,2-a]pyridine-3-carboxylic acid]: the remaining activity at 25 µM at E. coli CsgA (setting [8]) is above 60%; on E. coli CsgA (setting [9]) it was 71%. Also, the remaining activity at 100 µM on E. coli CsgA (setting [10]) is 31 to 60%; on E. coli CsgA (setting [11]) it was 36%. Further, the IC50 in experiment [1] (setting [7]) was 3.7 µM; in experiment [1] (setting [12]), 1.3 to 4.5 µM.
For the molecule `CCc1c(Cc2cccc3ccccc23)c(-c2cccc(C(F)(F)F)c2)c2n(c1=O)C(C(=O)O)CN2C` (stereo not drawn) [Compound 136, 6-ethyl-1-methyl-7-(naphthalen-1-ylmethyl)-5-oxo-8-(3-(trifluoromethyl)phenyl)-1,2,3,5-tetrahydroimidazo[1,2-a]pyridine-3-carboxylic acid], the remaining activity at 25 µM at E. coli CsgA (setting [8]) was above 60%; on E. coli CsgA (setting [9]) it was 77%. Further, the remaining activity at 100 µM on E. coli CsgA (setting [10]) was 11 to 31%; at E. coli CsgA (setting [11]), 27%. For the same molecule, the IC50 in experiment [1] (setting [7]) is 3.5 µM; in experiment [1] (setting [12]), 1.3 to 4.5 µM.
As for `O=C(O)C1CN(CCCCCO)S(=O)(=O)c2c(-c3cccc(C(F)(F)F)c3)c(Cc3cccc4ccccc34)cc(=O)n21` (stereo not drawn) [Compound 086, 2-(5-hydroxypentyl)-8-(naphthalen-1-ylmethyl)-6-oxo-9-(3-(trifluoromethyl)phenyl)-3,4-dihydro-2H,6H-pyrido[1,2-e][1,2,5]thiadiazine-4-carboxylic acid 1,1-dioxide], the remaining activity at 25 µM on E. coli CsgA (setting [2]) was 31 to 60%; at E. coli CsgA (setting [3]) it was 33%. Further, the results for the remaining activity at 100 µM at E. coli CsgA (setting [4]) and at E. coli CsgA (setting [5]) were 11 to 31% and 20%, respectively. Also, the IC50 in experiment [1] (setting [6]) is 4.6 to 10 µM; in experiment [1] (setting [7]), 9.6 µM.
On to `CN1CC(C(=O)O)n2c(c(-c3cccc(C(F)(F)F)c3)c(Cc3cccc4ccccc34)c(N3CCOCC3)c2=O)S1(=O)=O` (stereo not drawn) [Compound 079, 2-methyl-7-morpholino-8-(naphthalen-1-ylmethyl)-6-oxo-9-(3-(trifluoromethyl)phenyl)-3,4-dihydro-2H,6H-pyrido[1,2-e][1,2,5]thiadiazine-4-carboxylic acid 1,1-dioxide], for which the remaining activity at 25 µM was 31 to 60% on E. coli CsgA (setting [2]) and 40% at E. coli CsgA (setting [3]). Further, the remaining activity at 100 µM at E. coli CsgA (setting [4]) was 11 to 31%; at E. coli CsgA (setting [5]), 14%. Further, the IC50 in experiment [1] (setting [6]) is above 10 µM; in experiment [1] (setting [7]) it was 10.7 µM.
Consider `O=C(O)C1CN(Cc2ccccc2)c2c(-c3cccc(C(F)(F)F)c3)c(Cc3cccc4ncccc34)c(Cl)c(=O)n21` (stereo not drawn) [Compound 211, 1-benzyl-6-chloro-5-oxo-7-(quinolin-5-ylmethyl)-8-(3-(trifluoromethyl)phenyl)-1,2,3,5-tetrahydroimidazo[1,2-a]pyridine-3-carboxylic acid], for which the remaining activity at 25 µM at E. coli CsgA (setting [8]) was above 60%; on E. coli CsgA (setting [9]), 85%. Moreover, the remaining activity at 100 µM at E. coli CsgA (setting [10]) is above 60%; at E. coli CsgA (setting [11]), 65%. The IC50 in experiment [1] (setting [7]) is 20.6 µM; in experiment [1] (setting [12]), above 10 µM.
Regarding `CN1CC(C(=O)O)n2c(c(-c3cccc(C(F)(F)F)c3)c(Cc3cccc4ccccc34)c(NC3CCOCC3)c2=O)S1(=O)=O` (stereo not drawn) [Compound 072, 2-methyl-8-(naphthalen-1-ylmethyl)-6-oxo-7-((tetrahydro-2H-pyran-4-yl)amino)-9-(3-(trifluoromethyl)phenyl)-3,4-dihydro-2H,6H-pyrido[1,2-e][1,2,5]thiadiazine-4-carboxylic acid 1,1-dioxide], the values for the remaining activity at 25 µM on E. coli CsgA (setting [2]) and on E. coli CsgA (setting [3]) were 11 to 31% and 24%, respectively. Besides, the remaining activity at 100 µM on E. coli CsgA (setting [4]) was below 10%; on E. coli CsgA (setting [5]) it was 10%. The IC50 in experiment [1] (setting [6]) is 4.6 to 10 µM; in experiment [1] (setting [7]), 6.9 µM.
With `O=C(O)C1CN(Cc2ccccc2)c2c(-c3cccc(C(F)(F)F)c3)c(Cc3cccc4cnccc34)c(Cl)c(=O)n21` (stereo not drawn) [Compound 212, 1-benzyl-6-chloro-7-(isoquinolin-5-ylmethyl)-5-oxo-8-(3-(trifluoromethyl)phenyl)-1,2,3,5-tetrahydroimidazo[1,2-a]pyridine-3-carboxylic acid], the remaining activity at 25 µM is above 60% at E. coli CsgA (setting [8]) and 64% on E. coli CsgA (setting [9]). Further, the values for the remaining activity at 100 µM on E. coli CsgA (setting [10]) and on E. coli CsgA (setting [11]) were 31 to 60% and 56%, respectively. Also, the IC50 in experiment [1] (setting [7]) is 13 µM; in experiment [1] (setting [12]) it was above 10 µM.
Regarding `O=C(O)C1CS(=O)(=O)c2c(-c3cccc(C(F)(F)F)c3)c(C(F)(F)c3cccc4ccccc34)cc(=O)n21` (stereo not drawn) [Compound 081, 7-(difluoro(naphthalen-1-yl)methyl)-5-oxo-8-(3-(trifluoromethyl)phenyl)-2,3-dihydro-5H-thiazolo[3,2-a]pyridine-3-carboxylic acid 1,1-dioxide], the remaining activity at 25 µM on E. coli CsgA (setting [2]) was 11 to 31%; on E. coli CsgA (setting [3]), 25%. The remaining activity at 100 µM at E. coli CsgA (setting [4]) was 11 to 31%; on E. coli CsgA (setting [5]), 24%. In addition, the IC50 was above 10 µM in experiment [1] (setting [6]) and 16.5 µM in experiment [1] (setting [7]).

Broadly, the IC50 is the concentration at which inhibition is half-maximal.
